{"source": "patent US9951028B2", "about": "“Agricultural chemicals” (REDAG CROP PROTECTION LTD, priority 2013, dated 2018)", "key": {"[1]": {"system": "common chickweed, Stellaria media", "experiment": "Herbicidal efficacy screen, potter tower spray, necrosis assessed", "assay_type": "in vivo", "procedure": "(§1) Compounds 22, 23 and 24 were screened for herbicidal efficacy against target plants: garden cress, Lepidium sativum, common chickweed, Stellaria media, and white mustard […] alba Plants were obtained as seeds and were grown to the 2-4 true leaf stage. Plants were grown under laboratory conditions, individually in seed trays. Each plant (in an approximately 3 cm diameter plug) was then detached from the tray for spraying. The compounds were screened at a range of five concentrations, diluted in acetone and TweenTM. A carrier only control was also conducted. Treatments were applied directly onto the plants, using a potter tower, at a specified application rate. One plant of each species was sprayed using a potter tower. The 3 different types of plants were placed on a 10 cm diameter platform directly beneath the potter sprayer and sprayed simultaneously. The growth of the plants and any Phytotoxicity effects were then assessed at intervals over 21 days, according to EPPO guideline PP1/135. Five replicas were performed for each treatment, for each species. In the tables below C represents a percentage increase in necrosis relative to the control of 0.1-50; B represents a percentage inhibition of 50-80; and A represents a percentage inhibition of 80-100."}, "[2]": {"system": "garden cress, Lepidium sativum", "experiment": "Herbicidal efficacy screen, potter tower spray, necrosis assessed", "assay_type": "in vivo", "procedure": "as §1"}, "[3]": {"conditions": "50 g/ha, day 4 post application"}, "[4]": {"conditions": "50 g/ha, day 5 post application"}, "[5]": {"conditions": "50 g/ha, day 7 post application"}, "[6]": {"conditions": "50 g/ha, day 10 post application"}, "[7]": {"conditions": "100 g/ha, day 1 post application"}, "[8]": {"conditions": "100 g/ha, day 2 post application"}, "[9]": {"conditions": "100 g/ha, day 3 post application"}, "[10]": {"conditions": "100 g/ha, day 4 post application"}, "[11]": {"conditions": "100 g/ha, day 5 post application"}, "[12]": {"conditions": "100 g/ha, day 7 post application"}, "[13]": {"conditions": "100 g/ha, day 10 post application"}, "[14]": {"conditions": "200 g/ha, day 1 post application"}, "[15]": {"conditions": "200 g/ha, day 2 post application"}, "[16]": {"conditions": "200 g/ha, day 3 post application"}, "[17]": {"conditions": "200 g/ha, day 4 post application"}, "[18]": {"conditions": "200 g/ha, day 5 post application"}, "[19]": {"conditions": "200 g/ha, day 7 post application"}, "[20]": {"conditions": "200 g/ha, day 10 post application"}}}
{"smiles": "CC(C)N(C)S(=O)(=O)NCc1cc(-n2c(=O)cc(C(F)(F)F)n(C)c2=O)c(F)cc1Cl", "note": "[Compound 23, 1-[4-Chloro-2-fluoro-5-[[(isopropyl(methyl)sulfamoyl)amino]methyl]phenyl]-3-methyl-2,6-dioxo-4-(trifluoromethyl)pyrimidine]", "values": [{"measurement": "Average of necrosis", "setting": "[1]; [3]", "value": "C (C represents a percentage increase in necrosis relative to the control of 0.1-50)"}, {"measurement": "Average of necrosis", "setting": "[1]; [4]", "value": "B (B represents a percentage inhibition of 50-80)"}, {"measurement": "Average of necrosis", "setting": "[1]; [5]", "value": "B (B represents a percentage inhibition of 50-80)"}, {"measurement": "Average of necrosis", "setting": "[1]; [6]", "value": "B (B represents a percentage inhibition of 50-80)"}, {"measurement": "Average of necrosis", "setting": "[1]; [7]", "value": "C (C represents a percentage increase in necrosis relative to the control of 0.1-50)"}, {"measurement": "Average of necrosis", "setting": "[1]; [8]", "value": "C (C represents a percentage increase in necrosis relative to the control of 0.1-50)"}, {"measurement": "Average of necrosis", "setting": "[1]; [9]", "value": "C (C represents a percentage increase in necrosis relative to the control of 0.1-50)"}, {"measurement": "Average of necrosis", "setting": "[1]; [10]", "value": "C (C represents a percentage increase in necrosis relative to the control of 0.1-50)"}, {"measurement": "Average of necrosis", "setting": "[1]; [11]", "value": "B (B represents a percentage inhibition of 50-80)"}, {"measurement": "Average of necrosis", "setting": "[1]; [12]", "value": "B (B represents a percentage inhibition of 50-80)"}, {"measurement": "Average of necrosis", "setting": "[1]; [13]", "value": "A (A represents a percentage inhibition of 80-100)"}, {"measurement": "Average of necrosis", "setting": "[1]; [14]", "value": "C (C represents a percentage increase in necrosis relative to the control of 0.1-50)"}, {"measurement": "Average of necrosis", "setting": "[1]; [15]", "value": "C (C represents a percentage increase in necrosis relative to the control of 0.1-50)"}, {"measurement": "Average of necrosis", "setting": "[1]; [16]", "value": "C (C represents a percentage increase in necrosis relative to the control of 0.1-50)"}, {"measurement": "Average of necrosis", "setting": "[1]; [17]", "value": "C (C represents a percentage increase in necrosis relative to the control of 0.1-50)"}, {"measurement": "Average of necrosis", "setting": "[1]; [18]", "value": "B (B represents a percentage inhibition of 50-80)"}, {"measurement": "Average of necrosis", "setting": "[1]; [19]", "value": "B (B represents a percentage inhibition of 50-80)"}, {"measurement": "Average of necrosis", "setting": "[1]; [20]", "value": "B (B represents a percentage inhibition of 50-80)"}, {"measurement": "Average of necrosis", "setting": "[2]; 12.5 g/ha, day 1 post application", "value": "C (C represents a percentage increase in necrosis relative to the control of 0.1-50)"}, {"measurement": "Average of necrosis", "setting": "[2]; 12.5 g/ha, day 2 post application", "value": "C (C represents a percentage increase in necrosis relative to the control of 0.1-50)"}, {"measurement": "Average of necrosis", "setting": "[2]; 12.5 g/ha, day 3 post application", "value": "C (C represents a percentage increase in necrosis relative to the control of 0.1-50)"}, {"measurement": "Average of necrosis", "setting": "[2]; 12.5 g/ha, day 4 post application", "value": "C (C represents a percentage increase in necrosis relative to the control of 0.1-50)"}, {"measurement": "Average of necrosis", "setting": "[2]; 12.5 g/ha, day 5 post application", "value": "C (C represents a percentage increase in necrosis relative to the control of 0.1-50)"}, {"measurement": "Average of necrosis", "setting": "[2]; 12.5 g/ha, day 7 post application", "value": "C (C represents a percentage increase in necrosis relative to the control of 0.1-50)"}, {"measurement": "Average of necrosis", "setting": "[2]; 12.5 g/ha, day 10 post application", "value": "C (C represents a percentage increase in necrosis relative to the control of 0.1-50)"}, {"measurement": "Average of necrosis", "setting": "[2]; 25 g/ha, day 1 post application", "value": "C (C represents a percentage increase in necrosis relative to the control of 0.1-50)"}, {"measurement": "Average of necrosis", "setting": "[2]; 25 g/ha, day 2 post application", "value": "C (C represents a percentage increase in necrosis relative to the control of 0.1-50)"}, {"measurement": "Average of necrosis", "setting": "[2]; 25 g/ha, day 3 post application", "value": "C (C represents a percentage increase in necrosis relative to the control of 0.1-50)"}, {"measurement": "Average of necrosis", "setting": "[2]; 25 g/ha, day 4 post application", "value": "C (C represents a percentage increase in necrosis relative to the control of 0.1-50)"}, {"measurement": "Average of necrosis", "setting": "[2]; 25 g/ha, day 5 post application", "value": "C (C represents a percentage increase in necrosis relative to the control of 0.1-50)"}, {"measurement": "Average of necrosis", "setting": "[2]; 25 g/ha, day 7 post application", "value": "C (C represents a percentage increase in necrosis relative to the control of 0.1-50)"}, {"measurement": "Average of necrosis", "setting": "[2]; 25 g/ha, day 10 post application", "value": "B (B represents a percentage inhibition of 50-80)"}, {"measurement": "Average of necrosis", "setting": "[2]; 50 g/ha, day 1 post application", "value": "C (C represents a percentage increase in necrosis relative to the control of 0.1-50)"}, {"measurement": "Average of necrosis", "setting": "[2]; 50 g/ha, day 2 post application", "value": "C (C represents a percentage increase in necrosis relative to the control of 0.1-50)"}, {"measurement": "Average of necrosis", "setting": "[2]; 50 g/ha, day 3 post application", "value": "C (C represents a percentage increase in necrosis relative to the control of 0.1-50)"}, {"measurement": "Average of necrosis", "setting": "[2]; [3]", "value": "C (C represents a percentage increase in necrosis relative to the control of 0.1-50)"}, {"measurement": "Average of necrosis", "setting": "[2]; [4]", "value": "B (B represents a percentage inhibition of 50-80)"}, {"measurement": "Average of necrosis", "setting": "[2]; [5]", "value": "B (B represents a percentage inhibition of 50-80)"}, {"measurement": "Average of necrosis", "setting": "[2]; [6]", "value": "B (B represents a percentage inhibition of 50-80)"}, {"measurement": "Average of necrosis", "setting": "[2]; [7]", "value": "C (C represents a percentage increase in necrosis relative to the control of 0.1-50)"}, {"measurement": "Average of necrosis", "setting": "[2]; [8]", "value": "C (C represents a percentage increase in necrosis relative to the control of 0.1-50)"}, {"measurement": "Average of necrosis", "setting": "[2]; [9]", "value": "C (C represents a percentage increase in necrosis relative to the control of 0.1-50)"}, {"measurement": "Average of necrosis", "setting": "[2]; [10]", "value": "C (C represents a percentage increase in necrosis relative to the control of 0.1-50)"}, {"measurement": "Average of necrosis", "setting": "[2]; [11]", "value": "B (B represents a percentage inhibition of 50-80)"}, {"measurement": "Average of necrosis", "setting": "[2]; [12]", "value": "B (B represents a percentage inhibition of 50-80)"}, {"measurement": "Average of necrosis", "setting": "[2]; [13]", "value": "B (B represents a percentage inhibition of 50-80)"}, {"measurement": "Average of necrosis", "setting": "[2]; [14]", "value": "C (C represents a percentage increase in necrosis relative to the control of 0.1-50)"}, {"measurement": "Average of necrosis", "setting": "[2]; [15]", "value": "B (B represents a percentage inhibition of 50-80)"}, {"measurement": "Average of necrosis", "setting": "[2]; [16]", "value": "B (B represents a percentage inhibition of 50-80)"}, {"measurement": "Average of necrosis", "setting": "[2]; [17]", "value": "B (B represents a percentage inhibition of 50-80)"}, {"measurement": "Average of necrosis", "setting": "[2]; [18]", "value": "B (B represents a percentage inhibition of 50-80)"}, {"measurement": "Average of necrosis", "setting": "[2]; [19]", "value": "B (B represents a percentage inhibition of 50-80)"}, {"measurement": "Average of necrosis", "setting": "[2]; [20]", "value": "B (B represents a percentage inhibition of 50-80)"}]}
